SMILES strings stand for the structures. Values after ≈ are worked out from the molar mass of the structure shown.

A short description of data set [1]: Solubility of FR-900840 substance. The format is physicochemical.
Data set [2] has as its system human mammary adenocarcinoma MCF-7 cell. Briefly: Inhibition of human mammary adenocarcinoma MCF-7 cell growth in vitro (MTT assay). The settings on record: MCF7, 168 h, MCF-7 cells, seven days at 37° C. The class given is cell-based. As to the method: Inhibition of human mammary adenocarcinoma MCF-7 cell growth in vitro by some compounds of the amino acid derivatives (I)
The cytotoxicity test was performed in microtiter plates, with each well containing 3×10^3 MCF-7 cells in 100 μl Eagle's minimum essential medium supplemented with 10% fetal calf serum, sodium pyruvate, nonessential amino acids, penicillin (50 units/ml) and streptomycin (50 μg/ml). The cells were incubated at 37° C. for seven days in humidified atomosphere of 5% carbon dioxide and 95% of air and the colorimetric MTT assay was performed as described in Test 1.
The test compound was dissolved and diluted in Eagle's minimum essential medium and added to the culture to give final concentration of 30 μg/ml or less.
Background: Tetrazolium dyes change colour on reduction, which living cells bring about.

For data set [3], the system named is human lung adenocarcinoma A549 cell. Briefly: Inhibition of human lung adenocarcinoma A549 cell growth in vitro (MTT assay). The format is cell-based. The settings on record: 168 h, A549 cells, seven days at 37° C. As to the method: Inhibition of human lung adenocarcinoma A549 cell growth in vitro by some compounds of the amino acid derivatives (I)
The cytotoxicity test was performed in microtiter plates, with each well containing 3×10^3 A549 cells in 100 μl Dulbecco's minimum essential medium supplemented with 10% fetal calf serum, penicillin (50 units/ml) and streptomycin (50 μg/ml). The cells were incubated at 37° C. for seven days and the colorimetric MTT (tetrazolium) assay was performed according to the method described by Mosmann (J. Immunol. Methods, 65, 55-63, 1983). MTT [3-(4,5-dimethylthiazol-2-yl)-2,5-diphenyl tetrazolium bromide, made by Sigma] was dissolved in PBS at 5 mg/ml and filtered to sterilize and remove a small amount of insoluble residue. After the culture of A549 cells was terminated, this MTT solution (10 μl per 100μl medium) was added to plates were further incubated at 37° C. for 4 hours. Acid-isopropanol (100 μl of 0.04N HCl in isopropanol) was added to all wells and mixed thoroughly to dissolve the dark blue crystals. After all crystals were dissolved, the plates were read on a 2-wavelength microplate photometer (Model MTP-22; Corona Electric Co., Ltd., Katsuta, Japan) at 550 nm, a reference wavelength of 660 nm. The object compound of this invention was dissolved and diluted in Dulbecco's minimum essential medium and added to the culture to give final concentration of 30μg/ml or less.

Data set [4] is described as follows: Acute toxicity in BDF1 mice by intravenous injection. The settings on record: mouse, in vivo. As to the method: Acute toxicity of FR-900840 substance in BDF1 mice by intravenous injection is 180 mg/kg.

The IC50 is the midpoint of a concentration-inhibition curve. A lower IC50 goes with inhibition by little substance. A word on the LD50: it is the dose at which mortality reaches 50%. As for `C[C@@H](O)C(=[N+]=[N-])C(=O)OC[C@H](N)C(=O)O` [Example 1, O-[2-diazo-3(R)-hydroxy-1-oxobutyl]-L-serine], the Solubility entry in data set [1] (acetone) is on record as “insoluble”; in data set [1] (benzene), “insoluble”; in data set [1] (chloroform) it was “insoluble”; in data set [1] (diethyl ether) it was “insoluble”; in data set [1] (ethanol), “sparingly soluble”; in data set [1] (ethyl acetate) it was “insoluble”. Besides, the results for the Solubility result in data set [1] (methanol) and in data set [1] (water) were “sparingly soluble” and “soluble”, respectively. Besides, the values for the IC50 in data set [2] and in data set [3] were 0.0018 ng/mL (≈ 0.00829 nM) and 0.012 ng/mL (≈ 0.0553 nM), respectively. The LD50 in data set [4] was 180 mg/kg.

As for `C[C@@H](O)C(=[N+]=[N-])C(=O)OC[C@H](NC(=O)C(F)(F)F)C(=O)O` [Example 2, O-[2-Diazo-3(R)-hydroxy-1-oxobutyl]-N-trifluoroacetyl-L-serine], the IC50 in data set [2] came out at 0.0068 ng/mL (≈ 0.0217 nM); in data set [3] it was 0.0105 ng/mL (≈ 0.0335 nM).

Consider `C[C@H](O)C(=[N+]=[N-])C(=O)OC[C@H](N)C(=O)O` [Example 4, O-[2-Diazo-3(S)-hydroxy-1-oxobutyl]-L-serine], for which the results for the IC50 in data set [2] and in data set [3] were 0.00082 ng/mL (≈ 0.00378 nM) and 0.018 ng/mL (≈ 0.0829 nM), respectively.

For the molecule `[N-]=[N+]=C(C(=O)OC[C@H](N)C(=O)O)C(O)c1ccccc1` (stereo partly shown) [Example 5], the IC50 in data set [2] came out at 0.076 ng/mL (≈ 0.272 nM); in data set [3], 0.14 ng/mL (≈ 0.501 nM).

Regarding `[N-]=[N+]=C(CO)C(=O)OC[C@H](N)C(=O)O` [Example 6, O-(2-Diazo-3-hydroxy-1-oxopropyl)-L-serine], the IC50 came out at 0.0017 ng/mL (≈ 0.00837 nM) in data set [2] and 0.0018 ng/mL (≈ 0.00886 nM) in data set [3].

The values are drawn from US4939241A, “Amino acid derivatives of antitumor activity” (Fujisawa Pharmaceutical Co., Ltd., priority 1987, dated 1990).
